Results reported in US20210221822A1, “TRICYCLIC DERIVATIVES INHIBITOR, PREPARATION METHOD, AND APPLICATIONS THEREOF” (Jiangsu Hansoh Pharmaceutical Group Co., Ltd., priority 2018, published 2021).

How the values were obtained:
PI3Kβ = molecular target: T1, PI3Kβ (Homo sapiens, UniProt P42338); assay: ADP-Glo lipid kinase assay, PI3Kβ kinase activity; format: biochemical; conditions: 0.4 nM enzyme, 90 min, 100 μM ATP
T1 construct: purchased Carna 11-102
Procedure: (§1) Experimental method: Promega's ADP-Glo lipid kinase assay method (Promega #V9102) was applied in this experiment. Lipid kinase PI3Kα/β/γ/δ catalyzed the generation of ADP from ATP in the presence of the substrate PIP2: 3PS and ATP. The lipid kinase activity was characterized by measuring the ADP content in the reaction, and the half inhibitory concentration IC50 of the compound on inhibiting PI3Kα/β/γ/δ kinase activity was thus obtained.
(§2) The kinase reaction was carried out in a white 384-well plate (Perkin Elmer #6007299). 2 μL of the compound solution of different concentrations diluted with ddH2O containing 1% DMSO was added to each well. 2 μL of ddH2O containing 1% DMSO was added to the positive control well. 2 μL of 0.1-2 nM PI3K kinase solution diluted with 5× kinase buffer (HEPES 250 mM, MgCl2 15 mM, NaCl 250 mM, BSA 0.05%) was added to each well. 2 μL of 5× kinase buffer was added to the negative control well. 4 μL of 50 μM substrate PIP2: 3PS (Promega #V1701) formulated with 10× Dilution buffer and ddH2O was added to all wells. Finally, 2 μL of […] ATP solution diluted with water was added to start the reaction. After the reaction was carried out at room temperature for 90 to 120 minutes, 10 μL of ADP-Glo Reagent (containing 10 mM MgCl2) was added to each well, and reacted at room temperature for 60 minutes to remove excess ATP in the reaction. 20 μL of Kinase Detection Reagent was added to each well, and reacted at room temperature in the dark for 20 minutes. The chemiluminescence value was measured by the BioTek Synergy H1 microplate reader.
(§3) The percentage inhibition data of the compound-treated well was calculated through the positive control well (DMSO control well) and negative control well (no kinase added) on the plate {% inhibition rate=100−[(test compound value−negative control value)]/(positive control value−negative control value)×100}. The IC50 value was calculated by fitting the data of different concentrations and corresponding percentage inhibition rates to a four-parameter nonlinear logic formula with GraphPad prism.

PI3Kδ = molecular target: T2, PI3Kδ (Homo sapiens, UniProt O00329); assay: ADP-Glo lipid kinase assay, PI3Kδ kinase activity; format: biochemical; conditions: 0.1 nM enzyme, 90 min, 100 μM ATP
T2 construct: purchased Carna 11-103
T2 sequence (O00329 whole entry): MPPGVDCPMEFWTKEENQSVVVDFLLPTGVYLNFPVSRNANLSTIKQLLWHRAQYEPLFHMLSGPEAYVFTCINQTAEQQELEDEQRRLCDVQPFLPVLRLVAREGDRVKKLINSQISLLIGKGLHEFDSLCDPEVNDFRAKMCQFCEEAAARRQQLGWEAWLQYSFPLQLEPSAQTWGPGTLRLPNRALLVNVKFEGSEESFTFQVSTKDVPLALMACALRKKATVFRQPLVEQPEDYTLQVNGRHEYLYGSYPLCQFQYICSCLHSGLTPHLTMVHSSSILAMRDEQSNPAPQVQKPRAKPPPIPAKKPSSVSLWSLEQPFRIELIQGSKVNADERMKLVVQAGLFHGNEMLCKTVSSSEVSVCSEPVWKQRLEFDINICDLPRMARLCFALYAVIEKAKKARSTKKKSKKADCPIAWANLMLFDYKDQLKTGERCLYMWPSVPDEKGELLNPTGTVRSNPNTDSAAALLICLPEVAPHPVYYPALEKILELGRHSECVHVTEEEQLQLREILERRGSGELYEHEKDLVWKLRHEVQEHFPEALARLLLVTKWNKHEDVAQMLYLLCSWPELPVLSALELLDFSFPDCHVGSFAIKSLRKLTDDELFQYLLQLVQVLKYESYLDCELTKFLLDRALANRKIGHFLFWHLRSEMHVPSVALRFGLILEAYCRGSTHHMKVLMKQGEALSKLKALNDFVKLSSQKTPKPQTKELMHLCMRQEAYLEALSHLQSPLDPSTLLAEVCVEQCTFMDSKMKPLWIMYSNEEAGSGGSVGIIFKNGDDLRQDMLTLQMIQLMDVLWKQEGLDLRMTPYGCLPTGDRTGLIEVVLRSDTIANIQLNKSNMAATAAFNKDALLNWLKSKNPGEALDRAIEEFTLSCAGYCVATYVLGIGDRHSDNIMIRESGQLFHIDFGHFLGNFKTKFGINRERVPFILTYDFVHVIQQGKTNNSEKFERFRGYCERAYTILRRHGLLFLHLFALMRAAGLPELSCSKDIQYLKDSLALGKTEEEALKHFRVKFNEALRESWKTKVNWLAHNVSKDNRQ
T2 sequence (P27986 whole entry partner): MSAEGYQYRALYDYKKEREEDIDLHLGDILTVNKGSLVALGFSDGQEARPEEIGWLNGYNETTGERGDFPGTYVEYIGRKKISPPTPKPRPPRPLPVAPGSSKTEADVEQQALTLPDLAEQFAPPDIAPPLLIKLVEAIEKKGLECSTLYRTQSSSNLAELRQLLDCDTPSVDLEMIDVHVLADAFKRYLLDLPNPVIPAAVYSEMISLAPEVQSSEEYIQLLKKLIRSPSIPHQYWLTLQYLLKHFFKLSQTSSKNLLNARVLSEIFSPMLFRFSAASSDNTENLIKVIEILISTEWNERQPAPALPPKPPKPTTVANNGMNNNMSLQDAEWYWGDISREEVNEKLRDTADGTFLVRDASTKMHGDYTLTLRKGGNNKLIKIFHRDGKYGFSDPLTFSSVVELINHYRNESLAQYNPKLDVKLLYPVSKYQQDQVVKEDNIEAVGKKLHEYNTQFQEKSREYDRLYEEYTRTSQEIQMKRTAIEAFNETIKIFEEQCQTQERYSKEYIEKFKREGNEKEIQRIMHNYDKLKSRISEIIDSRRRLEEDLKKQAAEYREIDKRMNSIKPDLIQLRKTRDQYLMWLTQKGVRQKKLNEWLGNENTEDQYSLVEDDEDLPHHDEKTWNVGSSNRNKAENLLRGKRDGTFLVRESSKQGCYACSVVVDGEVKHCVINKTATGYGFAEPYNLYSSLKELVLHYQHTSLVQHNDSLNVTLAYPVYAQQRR
Procedure: as §1, §2, §3

PI3Kγ = molecular target: T3, PI3Kγ (Homo sapiens, UniProt P48736); assay: ADP-Glo lipid kinase assay, PI3Kγ kinase activity; format: biochemical; conditions: 0.4 nM enzyme, 120 min, 50 μM ATP
T3 construct: purchased Thermofisher PV4786
T3 sequence (P48736 whole entry): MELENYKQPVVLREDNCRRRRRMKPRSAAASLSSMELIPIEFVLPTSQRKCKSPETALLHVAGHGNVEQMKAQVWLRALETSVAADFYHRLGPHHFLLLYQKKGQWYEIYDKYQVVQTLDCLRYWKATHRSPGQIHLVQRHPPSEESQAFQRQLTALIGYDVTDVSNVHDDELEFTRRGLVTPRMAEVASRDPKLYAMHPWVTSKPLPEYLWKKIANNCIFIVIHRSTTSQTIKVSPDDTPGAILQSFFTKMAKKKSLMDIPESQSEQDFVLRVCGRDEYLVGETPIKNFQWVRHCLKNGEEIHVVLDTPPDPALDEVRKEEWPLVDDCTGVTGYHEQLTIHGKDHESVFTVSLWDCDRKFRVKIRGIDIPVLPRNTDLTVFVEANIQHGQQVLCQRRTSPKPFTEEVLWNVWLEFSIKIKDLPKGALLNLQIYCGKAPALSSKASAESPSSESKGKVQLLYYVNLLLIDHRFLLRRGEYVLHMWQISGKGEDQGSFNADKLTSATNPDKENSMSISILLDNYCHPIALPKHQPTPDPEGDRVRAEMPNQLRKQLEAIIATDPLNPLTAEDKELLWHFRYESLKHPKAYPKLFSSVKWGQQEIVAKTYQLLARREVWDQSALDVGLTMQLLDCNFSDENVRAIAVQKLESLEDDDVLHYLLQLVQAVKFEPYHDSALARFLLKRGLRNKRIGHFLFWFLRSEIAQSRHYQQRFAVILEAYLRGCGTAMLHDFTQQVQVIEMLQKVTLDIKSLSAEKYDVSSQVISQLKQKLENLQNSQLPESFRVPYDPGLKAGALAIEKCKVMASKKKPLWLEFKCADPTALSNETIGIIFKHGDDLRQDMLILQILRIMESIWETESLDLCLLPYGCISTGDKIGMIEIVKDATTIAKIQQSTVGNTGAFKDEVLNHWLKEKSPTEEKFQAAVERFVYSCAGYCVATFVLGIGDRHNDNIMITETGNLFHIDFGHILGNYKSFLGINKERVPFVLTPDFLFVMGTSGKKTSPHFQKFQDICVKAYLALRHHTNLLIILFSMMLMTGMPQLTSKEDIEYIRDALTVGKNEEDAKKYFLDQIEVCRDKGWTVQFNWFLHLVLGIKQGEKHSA
Procedure: as §1, §2, §3

PI3Kα = molecular target: T4, PI3Kα (Homo sapiens, UniProt P42336); assay: ADP-Glo lipid kinase assay, PI3Kα kinase activity; format: biochemical; conditions: for IC50: ADP-Glo, 0.1 nM enzyme, 120 min, 50 μM ATP; for Selectivity of PI3Kα vs PI3Kβ: ratio of IC50 PI3Kβ to IC50 PI3Kα; for Selectivity of PI3Kα vs PI3Kγ: ratio of IC50 PI3Kγ to IC50 PI3Kα; for Selectivity of PI3Kα vs PI3Kδ: ratio of IC50 PI3Kδ to IC50 PI3Kα
T4 construct: purchased Promega V1721
T4 sequence (P42336 whole entry): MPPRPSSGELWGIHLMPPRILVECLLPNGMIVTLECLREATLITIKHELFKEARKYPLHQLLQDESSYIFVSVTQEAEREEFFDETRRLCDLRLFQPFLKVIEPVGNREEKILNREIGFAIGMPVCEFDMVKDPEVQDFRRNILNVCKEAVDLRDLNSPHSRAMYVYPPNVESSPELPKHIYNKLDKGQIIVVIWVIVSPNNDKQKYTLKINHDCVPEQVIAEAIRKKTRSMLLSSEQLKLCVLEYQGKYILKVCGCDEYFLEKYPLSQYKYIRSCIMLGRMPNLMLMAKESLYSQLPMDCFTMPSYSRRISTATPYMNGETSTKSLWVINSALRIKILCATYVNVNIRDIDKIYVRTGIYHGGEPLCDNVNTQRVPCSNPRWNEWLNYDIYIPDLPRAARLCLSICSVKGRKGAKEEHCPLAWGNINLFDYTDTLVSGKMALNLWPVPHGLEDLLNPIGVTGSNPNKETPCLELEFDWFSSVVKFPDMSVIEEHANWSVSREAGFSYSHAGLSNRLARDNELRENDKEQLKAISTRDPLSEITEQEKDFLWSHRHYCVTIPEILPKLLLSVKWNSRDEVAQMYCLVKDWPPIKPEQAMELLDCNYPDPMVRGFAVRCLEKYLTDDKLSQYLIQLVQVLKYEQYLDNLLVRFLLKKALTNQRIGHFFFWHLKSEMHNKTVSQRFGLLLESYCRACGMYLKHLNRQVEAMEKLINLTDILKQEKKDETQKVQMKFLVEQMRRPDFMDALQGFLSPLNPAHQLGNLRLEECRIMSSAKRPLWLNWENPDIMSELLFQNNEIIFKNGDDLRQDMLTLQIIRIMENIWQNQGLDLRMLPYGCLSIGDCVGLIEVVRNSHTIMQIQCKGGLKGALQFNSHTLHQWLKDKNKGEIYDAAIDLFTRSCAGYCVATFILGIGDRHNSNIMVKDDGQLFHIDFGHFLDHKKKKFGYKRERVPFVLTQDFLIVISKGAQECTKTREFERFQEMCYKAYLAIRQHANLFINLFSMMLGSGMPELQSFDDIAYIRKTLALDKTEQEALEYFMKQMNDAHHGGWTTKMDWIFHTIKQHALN
T4 sequence (P27986 whole entry partner): as the sequence (P27986 whole entry partner) above
Procedure: as §1, §2, §3

[1] = Pharmacokinetic (PK) assay in mice; format: in vivo; conditions: male, Balb/c, mouse, plasma, po, single intragastric 5 mg/kg; for AUC(0-t): read-out: Area under curve AUC0-t; for AUC(0-inf): read-out: Area under curve AUC0-∞; for half-life: read-out: Half-life t1/2(h) (converted); for MRT: read-out: Mean residence time MRT; for Tmax: read-out: Peak time tmax; for Cmax: read-out: Plasma concentration Cmax
Procedure: The pharmacokinetic assay of the preferred compounds of the examples of the present invention in mice was carried out in Balb/c male mice (Shanghai Jiesijie Laboratory Animal Co., LTD). • Administration mode: single intragastric administration. • Administration dose: 5 mg/10 ml/kg (body weight). • Formulation: the compound was dissolved in 0.5% CMC-Na by ultrasound to obtain a clear solution or homogeneous suspension. • Sampling points: 0.5, 1, 2, 4, 6, 8 and 24 hours after administration. • Sample process: • 1) 0.1 mL of blood was taken from the orbit, placed in a K2-EDTA tube, and centrifuged for 5 to 20 minutes at room temperature at 1000 to 3000×g to separate the plasma, which was then stored at −80° C. • 2) 160 uL of acetonitrile was added to 40 uL of plasma sample for precipitation, and then the mixture was centrifuged for 5 to 20 minutes at 500 to 2000×g. • 3) 100 uL of processed supernatant was taken and analyzed by LC/MS/MS assay to determine the concentration of the test compound. • LC-MS/MS assay: • Liquid chromatography condition: Shimadzu LC-20AD pump • Mass spectrometry condition: AB Sciex API 4000 mass spectrometer • Chromatographic column: phenomenex Gemiu 5 μm C18 50×4.6 mm • Mobile phase: solution A was 0.1% aqueous formic acid solution, and solution B was acetonitrile • Flow rate: 0.8 mL/min • Elution time: 0-4 minutes gradient elution • Pharmacokinetics: […]
The main parameters were calculated using WinNonlin 6.1.

T1 sequence (P42338 whole entry): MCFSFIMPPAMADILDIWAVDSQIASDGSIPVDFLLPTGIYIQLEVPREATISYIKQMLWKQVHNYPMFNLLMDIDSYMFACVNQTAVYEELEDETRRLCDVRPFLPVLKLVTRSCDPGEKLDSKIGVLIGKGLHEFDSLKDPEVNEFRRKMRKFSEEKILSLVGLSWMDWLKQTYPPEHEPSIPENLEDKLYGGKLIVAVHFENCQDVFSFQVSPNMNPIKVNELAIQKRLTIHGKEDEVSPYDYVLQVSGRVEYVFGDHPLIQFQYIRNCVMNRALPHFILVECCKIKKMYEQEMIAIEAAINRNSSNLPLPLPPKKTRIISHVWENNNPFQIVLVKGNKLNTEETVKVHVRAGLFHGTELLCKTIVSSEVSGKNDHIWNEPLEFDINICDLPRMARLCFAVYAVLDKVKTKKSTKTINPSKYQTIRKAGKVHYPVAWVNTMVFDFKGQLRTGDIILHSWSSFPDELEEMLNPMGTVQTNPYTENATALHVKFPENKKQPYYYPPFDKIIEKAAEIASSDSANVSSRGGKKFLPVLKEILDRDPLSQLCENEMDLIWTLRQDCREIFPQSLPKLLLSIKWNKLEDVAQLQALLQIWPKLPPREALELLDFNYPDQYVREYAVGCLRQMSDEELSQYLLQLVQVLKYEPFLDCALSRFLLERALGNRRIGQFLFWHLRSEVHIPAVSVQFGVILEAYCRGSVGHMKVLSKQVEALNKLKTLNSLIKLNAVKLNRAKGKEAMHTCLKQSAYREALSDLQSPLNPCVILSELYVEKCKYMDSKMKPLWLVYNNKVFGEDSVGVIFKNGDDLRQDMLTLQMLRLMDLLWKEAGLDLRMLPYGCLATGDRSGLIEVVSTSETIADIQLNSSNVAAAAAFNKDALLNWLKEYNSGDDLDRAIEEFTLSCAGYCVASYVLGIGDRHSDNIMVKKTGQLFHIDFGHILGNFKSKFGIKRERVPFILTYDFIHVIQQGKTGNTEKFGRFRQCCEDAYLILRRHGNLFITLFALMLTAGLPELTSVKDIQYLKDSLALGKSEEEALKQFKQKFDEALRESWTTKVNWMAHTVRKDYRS
T1 sequence (P27986 whole entry partner): as the sequence (P27986 whole entry partner) above

SMILES | IC50 (PI3Kβ) | IC50 (PI3Kδ) | IC50 (PI3Kγ) | IC50 (PI3Kα) | AUC(0-t) [1] | AUC(0-inf) [1] | half-life [1] | MRT [1] | Tmax [1] | Cmax [1] | Selectivity of PI3Kα vs PI3Kβ (PI3Kα) | Selectivity of PI3Kα vs PI3Kγ (PI3Kα) | Selectivity of PI3Kα vs PI3Kδ (PI3Kα)
C[C@H](Nc1ccc2c(c1)OCCn1cc(N3C(=O)O[C@H](C)[C@H]3C(F)F)nc1-2)C(N)=O [Example 54, (S)-2-((2-((4S,5R)-4-(difluoromethyl)-5-methyl-2-oxooxazolidin-3-yl)-5,6-dihydrobenzo[f]imidazo[1,2-d][1,4]oxazepin-9-yl)amino)propanamide] | 1800 nM | 336 nM | 481 nM | 1.2 nM | 1560 ng·h/mL | 1620 ng·h/mL | 1.8 h | 2 h | 60 min | 832 ng/mL | – | – | –
C[C@H](Nc1ccc2c(c1)OCCn1cc(N3CC(F)(F)COC3=O)nc1-2)C(N)=O [Example 66, (S)-2-((2-(5,5-difluoro-2-oxo-1,3-oxazinan-3-yl)-5,6-dihydrobenzo[f]imidazo[1,2-d][1,4]oxazepin-9-yl)amino)propanamide] | 4570 nM | 653 nM | 2080 nM | 9.3 nM | – | – | – | – | – | – | 492 | 223 | 70
C[C@H](Nc1ccc2c(c1)OCCn1cc(N3C(=O)N(C)C[C@H]3C(F)F)nc1-2)C(N)=O [Example 53, (S)-2-((2-((S)-5-(difluoromethyl)-3-methyl-2-oxoimidazolidin-1-yl)-5,6-dihydrobenzo[f]imidazo[1,2-d][1,4]oxazepin-9-yl)amino)propanamide] | 6190 nM | 373 nM | 402 nM | 5 nM | 1280 ng·h/mL | 1290 ng·h/mL | 0.8 h | 1.2 h | 30 min | 1090 ng/mL | – | 80 | –
COC[C@H](Nc1ccc2c(c1)OCCn1cc(N3C(=O)OC[C@H]3C(F)F)nc1-2)C(N)=O [Example 90, (S)-2-((2-((S)-4-(difluoromethyl)-2-oxooxazolidin-3-yl)-5,6-dihydrobenzo[f]imidazo[1,2-d][1,4]oxazepin-9-yl)amino)-3-methoxypropanamide] | – | – | – | – | 2070 ng·h/mL | 2090 ng·h/mL | 1 h | 1.6 h | 30 min | 1290 ng/mL | – | – | –
COC[C@H](Nc1ccc2c(c1F)OCCn1cc(N3C(=O)SC[C@H]3C(F)F)nc1-2)C(N)=O [Example 109, (S)-2-((2-((R)-4-(difluoromethyl)-2-oxothiazolidin-3-yl)-8-fluoro-5,6-dihydrobenzo[f]imidazo[1,2-d][1,4]oxazepin-9-yl)amino)-3-methoxypropanamide] | 1070 nM | 348 nM | 1150 nM | 6.8 nM | – | – | – | – | – | – | – | – | –
C[C@H](Nc1ccc2c(c1)OCCn1c-2nc(N2C(=O)OC[C@H]2C(F)F)c1F)C(N)=O [Example 10, (S)-2-((2-((S)-4-(difluoromethyl)-2-oxooxazolidin-3-yl)-3-fluoro-5,6-dihydrobenzo[f]imidazo[1,2-d][1,4]oxazepin-9-yl)amino)propanamide] | > 10000 nM | 1400 nM | 1790 nM | 7.9 nM | – | – | – | – | – | – | >1266 | – | –
C[C@H](Nc1ccc2c(c1)OCCn1cc(N3C(=O)CC[C@H]3CC#N)nc1-2)C(N)=O [Example 117, (S)-2-((2-((S)-2-(cyanomethyl)-5-oxopyrrolidin-1-yl)-5,6-dihydrobenzo[f]imidazo[1,2-d][1,4]oxazepin-9-yl)amino)propanamide] | 1950 nM | 280 nM | 505 nM | 2.5 nM | – | – | – | – | – | – | 779 | 202 | 112
C[C@@H](C(N)=O)N(C)c1ccc2c(c1)OCCn1cc(N3C(=O)SC[C@H]3C(F)F)nc1-2 [Example 112, (S)-2-((2-((R)-4-(difluoromethyl)-2-oxothiazolidin-3-yl)-5,6-dihydrobenzo[f]imidazo[1,2-d][1,4]oxazepin-9-yl)(methyl)amino)propanamide] | 523 nM | 69 nM | 478 nM | 2.2 nM | – | – | – | – | – | – | – | – | –
C[C@H](Nc1ccc2c(c1)OCCn1cc(N3C(=O)CC[C@H]3C(F)F)nc1-2)C(N)=O [Example 97, (S)-2-((2-((S)-2-(difluoromethyl)-5-oxopyrrolidin-1-yl)-5,6-dihydrobenzo[f]imidazo[1,2-d][1,4]oxazepin-9-yl)amino)propanamide] | 1650 nM | 190 nM | 510 nM | 2.1 nM | – | – | – | – | – | – | – | – | 90
C[C@H](Nc1cc(F)c2c(c1)OCCn1cc(N3C(=O)OC[C@H]3C(F)F)nc1-2)C(N)=O [Example 78, (S)-2-((2-((S)-4-(difluoromethyl)-2-oxooxazolidin-3-yl)-11-fluoro-5,6-dihydrobenzo[f]imidazo[1,2-d][1,4]oxazepin-9-yl)amino)propanamide] | 2790 nM | 459 nM | 510 nM | 5.2 nM | – | – | – | – | – | – | – | – | –
COC[C@H](Nc1ccc2c(c1)OCCn1cc(N3C(=O)OC[C@H]3CC#N)nc1-2)C(N)=O [Example 120, (S)-2-((2-((R)-4-(cyanomethyl)-2-oxooxazolidin-3-yl)-5,6-dihydrobenzo[f]imidazo[1,2-d][1,4]oxazepin-9-yl)amino)-3-methoxypropanamide] | 988 nM | 200 nM | 530 nM | 4.7 nM | – | – | – | – | – | – | 210 | 113 | 43
CC(Nc1ccc2c(c1)OCCn1cc(N3C(=O)OC(C)[C@H]3C(F)F)nc1-2)C(N)=O (stereo in doubt) [Example 55, (R)-2-((2-((4S,5R)-4-(difluoromethyl)-5-methyl-2-oxooxazolidin-3-yl)-5,6-dihydrobenzo[f]imidazo[1,2-d][1,4]oxazepin-9-yl)amino)propanamide] | 1870 nM | 213 nM | 363 nM | 1.7 nM | – | – | – | – | – | – | – | – | –
CC(C)[C@H](Nc1ccc2c(c1)OCCn1cc(N3C(=O)OC[C@H]3C(F)F)nc1-2)C(N)=O [Example 38, (S)-2-((2-((S)-4-(difluoromethyl)-2-oxooxazolidin-3-yl)-5,6-dihydrobenzo[f]imidazo[1,2-d][1,4]oxazepin-9-yl)amino)-3-methylbutanamide] | 1430 nM | 410 nM | 447 nM | 4 nM | – | – | – | – | – | – | – | – | –
